# Patent publication US20250179073A1, “TRICYCLIC HETEROCYCLE COMPOUNDS AS IAP ANTAGONISTS” (Ascentage Pharma (Suzhou) Co., Ltd., priority 2022, published 2025)
# Test system: MDA-MB-231 cells
# Assay: Cell proliferation assay (CellTiter-Glo), MDA-MB-231
# Format: cell-based
# Settings: Homo sapiens, MDA-MB-231, 72 h, 72 h treatment, Celltiter-Glo luminescence
# Method: Example 238: Cell Proliferation Assay
# MDA-MB-231 and EVSA-T cells (10000 cells/well) were plated onto 96-well plates (Corning, Cat #3917) in 95 μL of medium (RPMI-1640 containing 10% FBS and MEM containing 10% FBS, respectively). Compounds with various concentrations ([…]) were added to the wells. After treatment for 72 h, 30 μL of Celltiter-Glo reagent (Promega, Cat #G7573) was added and incubated at room temperature for 15 min, then the luminescent signal was determined using a microplate reader (Biotek, SynergyH1). The inhibitor dose-response curves were analyzed using normalized IC50 regression curve fitting with control based normalization.
row,Structure (SMILES),IC50
1,"C[C@@H]1CN(CC(=O)N2CC(C)(C)c3c2cc(Cc2ccc(F)cc2)c2nc(CS(C)(=O)=O)nn32)[C@@H](CN2CCOC[C@H]2C)CN1 [Compound 141, 1-(4-(4-fluorobenzyl)-8,8-dimethyl-2-((methylsulfonyl)methyl)-7,8-dihydro-6H-pyrrolo[2,3-e][1,2,4]triazolo[1,5-a]pyridin-6-yl)-2-((2R,5R)-5-methyl-2-(((R)-3-methylmorpholino)methyl)piperazin-1-yl)ethan-1-one]",310 nM
2,"C[C@@H]1CN(CC(=O)N2CC(C)(C)c3c2cc(Cc2ccc(F)cc2)c2nnc(C(N)=O)n32)[C@@H](CN2CCOC[C@H]2C)CN1 [Compound 145, 4-(4-fluorobenzyl)-8,8-dimethyl-6-(2-((2R,5R)-5-methyl-2-(((R)-3-methylmorpholino)methyl)piperazin-1-yl)acetyl)-7,8-dihydro-6H-pyrrolo[2,3-e][1,2,4]triazolo[4,3-a]pyridine-1-carboxamide]",450 nM
3,"C[C@@H]1CN(CC(=O)N2CC(C)(C)c3c2cc(Cc2ccc(F)cc2)c2nc(C(F)(F)F)cn32)[C@@H](CN2CCOCC2(C)C)CN1 [Compound 146, 2-((2R,5R)-2-((3,3-dimethylmorpholino)methyl)-5-methylpiperazin-1-yl)-1-(4-(4-fluorobenzyl)-8,8-dimethyl-2-(trifluoromethyl)-7,8-dihydro-6H-imidazo[1,2-a]pyrrolo[2,3-e]pyridin-6-yl)ethan-1-one]",270 nM
4,"C[C@@H]1CN(CC(=O)N2CC(C)(C)c3c2cc(Cc2ccc(F)cc2)c2cc(C(F)(F)F)nn32)[C@@H](CN2CCOC[C@H]2C)CN1 [Compound 150, 1-(4-(4-fluorobenzyl)-8,8-dimethyl-2-(trifluoromethyl)-7,8-dihydro-6H-pyrazolo[1,5-a]pyrrolo[2,3-e]pyridin-6-yl)-2-((2R,5R)-5-methyl-2-(((R)-3-methylmorpholino)methyl)piperazin-1-yl)ethan-1-one]",490 nM
5,"C[C@@H]1CN(CC(=O)N2CC(C)(C)c3c2cc(Cn2ccc(F)cc2=O)c2ncnn32)[C@@H](CN2CCOC[C@H]2C)CN1 [Compound 151, 1-((8,8-dimethyl-6-(2-((2R,5R)-5-methyl-2-(((R)-3-methylmorpholino)methyl)piperazin-1-yl)acetyl)-7,8-dihydro-6H-pyrrolo[2,3-e][1,2,4]triazolo[1,5-a]pyridin-4-yl)methyl)-4-fluoropyridin-2(1H)-one]",3800 nM
6,"C[C@@H]1CN(CC(=O)N2CC(C)(C)c3c2cc(Cc2ccc(F)cc2F)c2nncn32)[C@@H](CN2CCOC[C@H]2C)CN1 [Compound 155, 1-(4-(2,4-difluorobenzyl)-8,8-dimethyl-7,8-dihydro-6H-pyrrolo[2,3-e][1,2,4]triazolo[4,3-a]pyridin-6-yl)-2-((2R,5R)-5-methyl-2-(((R)-3-methylmorpholino)methyl)piperazin-1-yl)ethan-1-one]",720 nM
7,"Cc1nnc2c(Cc3ccc(F)cc3F)cc3c(n12)C(C)(C)CN3C(=O)CN1C[C@@H](C)NC[C@@H]1CN1CCOC[C@H]1C [Compound 156, 1-(4-(2,4-difluorobenzyl)-1,8,8-trimethyl-7,8-dihydro-6H-pyrrolo[2,3-e][1,2,4]triazolo[4,3-a]pyridin-6-yl)-2-((2R,5R)-5-methyl-2-(((R)-3-methylmorpholino)methyl)piperazin-1-yl)ethan-1-one]",1330 nM
8,"C[C@@H]1CN(CC(=O)N2CC(C)(C)c3c2cc(Cc2ccc(F)cc2)c2nnc(C(F)F)n32)[C@@H](CN2CCOC[C@H]2C)CN1 [Compound 157, 1-(1-(difluoromethyl)-4-(4-fluorobenzyl)-8,8-dimethyl-7,8-dihydro-6H-pyrrolo[2,3-e][1,2,4]triazolo[4,3-a]pyridin-6-yl)-2-((2R,5R)-5-methyl-2-(((R)-3-methylmorpholino)methyl)piperazin-1-yl)ethan-1-one]",200 nM
9,"Cc1nc(C)c(Cc2cc3c(n4ncnc24)C(C)(C)CN3C(=O)CN2C[C@@H](C)NC[C@@H]2CN2CCOC[C@H]2C)s1 [Compound 158, 1-(4-((2,4-dimethylthiazol-5-yl)methyl)-8,8-dimethyl-7,8-dihydro-6H-pyrrolo[2,3-e][1,2,4]triazolo[1,5-a]pyridin-6-yl)-2-((2R,5R)-5-methyl-2-(((R)-3-methylmorpholino)methyl)piperazin-1-yl)ethan-1-one]",720 nM

# The next lines start with the values.
row,IC50,Structure (SMILES)
1,330 nM,"C[C@@H]1CN(CC(=O)N2CC(C)(C)c3c2cc(Cc2ccc(F)cc2)c2nc(C(F)(F)F)cn32)[C@@H](CN2CCOC[C@H]2CO)CN1 [Compound 160, 1-(4-(4-fluorobenzyl)-8,8-dimethyl-2-(trifluoromethyl)-7,8-dihydro-6H-imidazo[1,2-a]pyrrolo[2,3-e]pyridin-6-yl)-2-((2R,5R)-2-((3-(hydroxymethyl)morpholino)methyl)-5-methylpiperazin-1-yl)ethan-1-one]"
2,430 nM,"C[C@@H]1CN(CC(=O)N2CC(C)(C)c3c2cc(Cc2c(F)cc(F)cc2F)c2nncn32)[C@@H](CN2CCOC[C@H]2C)CN1 [Compound 164, 1-(8,8-dimethyl-4-(2,4,6-trifluorobenzyl)-7,8-dihydro-6H-pyrrolo[2,3-e][1,2,4]triazolo[4,3-a]pyridin-6-yl)-2-((2R,5R)-5-methyl-2-(((R)-3-methylmorpholino)methyl)piperazin-1-yl)ethan-1-one]"
3,150 nM,"C[C@@H]1CN(CC(=O)N2CC(C)(C)c3c2cc(C(F)(F)C24CC(C(F)(F)F)(C2)C4)c2ncnn32)[C@@H](CN2CCOC[C@H]2C)CN1 [Compound 166, 1-(4-(difluoro(3-(trifluoromethyl)bicyclo[1.1.1]pentan-1-yl)methyl)-8,8-dimethyl-7,8-dihydro-6H-pyrrolo[2,3-e][1,2,4]triazolo[1,5-a]pyridin-6-yl)-2-((2R,5R)-5-methyl-2-(((R)-3-methylmorpholino)methyl)piperazin-1-yl)ethan-1-one]"
4,190 nM,"C[C@@H]1CN(CC(=O)N2CC(C)(C)c3c2cc(N2CCCc4cc(F)ccc42)c2ncnn32)[C@@H](CN2CCOC[C@H]2C)CN1 [Compound 168, 1-(4-(6-fluoro-3,4-dihydroquinolin-1(2H)-yl)-8,8-dimethyl-7,8-dihydro-6H-pyrrolo[2,3-e][1,2,4]triazolo[1,5-a]pyridin-6-yl)-2-((2R,5R)-5-methyl-2-(((R)-3-methylmorpholino)methyl)piperazin-1-yl)ethan-1-one]"
5,980 nM,"C[C@@H]1CN(CC(=O)N2CC(C)(C)c3c2cc(N2CCOc4cc(F)ccc42)c2ncnn32)[C@@H](CN2CCOC[C@H]2C)CN1 [Compound 169, 1-(4-(7-fluoro-2,3-dihydro-4H-benzo[b][1,4]oxazin-4-yl)-8,8-dimethyl-7,8-dihydro-6H-pyrrolo[2,3-e][1,2,4]triazolo[1,5-a]pyridin-6-yl)-2-((2R,5R)-5-methyl-2-(((R)-3-methylmorpholino)methyl)piperazin-1-yl)ethan-1-one]"
6,99 nM,"C[C@@H]1CN(CC(=O)N2CC(C)(C)c3c2cc(Cc2ccc(F)cc2)c2nc(N4CC(C)(O)C4)nn32)[C@@H](CN2CCOC[C@H]2C)CN1 [Compound 170, 1-(4-(4-fluorobenzyl)-2-(3-hydroxy-3-methylazetidin-1-yl)-8,8-dimethyl-7,8-dihydro-6H-pyrrolo[2,3-e][1,2,4]triazolo[1,5-a]pyridin-6-yl)-2-((2R,5R)-5-methyl-2-(((R)-3-methylmorpholino)methyl)piperazin-1-yl)ethan-1-one]"
7,95 nM,"CC(C)c1nc2c(Cc3ccc(F)cc3)cc3c(n2n1)C(C)(C)CN3C(=O)CN1C[C@@H](C)NC[C@@H]1CN1CCOC[C@H]1C [Compound 171, 1-(4-(4-fluorobenzyl)-2-isopropyl-8,8-dimethyl-7,8-dihydro-6H-pyrrolo[2,3-e][1,2,4]triazolo[1,5-a]pyridin-6-yl)-2-((2R,5R)-5-methyl-2-(((R)-3-methylmorpholino)methyl)piperazin-1-yl)ethan-1-one]"
8,610 nM,"CCc1nnc2c(Cc3ccc(F)cc3)cc3c(n12)C(C)(C)CN3C(=O)CN1C[C@@H](C)NC[C@@H]1CN1CCOC[C@H]1C [Compound 172, 1-(1-ethyl-4-(4-fluorobenzyl)-8,8-dimethyl-7,8-dihydro-6H-pyrrolo[2,3-e][1,2,4]triazolo[4,3-a]pyridin-6-yl)-2-((2R,5R)-5-methyl-2-(((R)-3-methylmorpholino)methyl)piperazin-1-yl)ethan-1-one]"
9,530 nM,"C[C@@H]1CN(CC(=O)N2CC(C)(C)c3c2cc(Cc2ccc(F)cc2)c2nc(C(F)(F)F)cn32)[C@@H](CN2[C@H](C)COC[C@@H]2C)CN1 [Compound 173, 2-((2R,5R)-2-(((3S,5R)-3,5-dimethylmorpholino)methyl)-5-methylpiperazin-1-yl)-1-(4-(4-fluorobenzyl)-8,8-dimethyl-2-(trifluoromethyl)-7,8-dihydro-6H-imidazo[1,2-a]pyrrolo[2,3-e]pyridin-6-yl)ethan-1-one]"
10,450 nM,"CC(=O)N1CCN(C[C@H]2CN[C@H](C)CN2CC(=O)N2CC(C)(C)c3c2cc(Cc2ccc(F)cc2)c2nc(C(F)(F)F)cn32)[C@H](C)C1 [Compound 174, 2-((2R,5R)-2-(((R)-4-acetyl-2-methylpiperazin-1-yl)methy 1)-5-methylpiperazin-1-yl)-1-(4-(4-fluorobenzyl)-8,8-dimethyl-2-(trifluoromethyl)-7,8-dihydro-6H-imidazo[1,2-a]pyrrolo[2,3-e]pyridin-6-yl)ethan-1-one]"
11,120 nM,"C[C@@H]1CN(CC(=O)N2CC(C)(C)c3c2cc(Cc2ccc(F)cc2)c2nc(C(F)(F)F)cn32)[C@@H](CN2CCN(CC#N)C[C@H]2C)CN1 [Compound 175, 2-((R)-4-(((2R,5R)-1-(2-(4-(4-fluorobenzyl)-8,8-dimethyl-2-(trifluoromethyl)-7,8-dihydro-6H-imidazo[1,2-a]pyrrolo[2,3-e]pyridin-6-yl)-2-oxoethyl)-5-methylpiperazin-2-yl)methyl)-3-methylpiperazin-1-yl)acetonitrile]"
